Reference: ChEMBL document CHEMBL1201862, “PubChem BioAssay data set” (2004)
The source made the active and inactive calls.

What was measured:
[1] = target: Photoreceptor-specific nuclear receptor (Homo sapiens, UniProt Q9Y5X4); assay type: functional, cell-based;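 also: CHO-S cells with Gal4-NCOR and VP16-NR2E3 two-hybrid luciferase reporter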
[2] = target: T1, Adenosylmethionine-8-amino-7-oxononanoate aminotransferase (Mycobacterium tuberculosis, UniProt P9WQ81); test: Mycobacterium tuberculosis BioA enzyme inhibitor Measured in Biochemical System Using Plate Reader - 2163-02_Inhibitor_Dose_CherryPick_Activity.; assay type: functional, Mycobacterium tuberculosis UT205
T1 sequence (P9WQ81 whole entry): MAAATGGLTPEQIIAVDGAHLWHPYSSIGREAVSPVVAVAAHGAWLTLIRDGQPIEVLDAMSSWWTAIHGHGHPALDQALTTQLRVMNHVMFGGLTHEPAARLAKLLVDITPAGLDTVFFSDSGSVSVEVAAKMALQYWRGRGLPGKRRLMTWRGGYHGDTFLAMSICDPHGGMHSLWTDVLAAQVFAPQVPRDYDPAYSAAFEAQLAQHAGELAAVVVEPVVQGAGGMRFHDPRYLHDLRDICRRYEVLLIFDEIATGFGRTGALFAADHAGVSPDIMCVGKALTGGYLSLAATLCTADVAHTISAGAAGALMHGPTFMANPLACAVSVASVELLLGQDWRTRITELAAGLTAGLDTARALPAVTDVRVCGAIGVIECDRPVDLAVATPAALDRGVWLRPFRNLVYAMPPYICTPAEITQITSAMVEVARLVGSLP

[3] = target: T2, Low molecular weight phosphotyrosine protein phosphatase (Homo sapiens, UniProt P24666); assay type: functional; settings: read-out: IC50_Mean
T2 sequence (P24666 whole entry): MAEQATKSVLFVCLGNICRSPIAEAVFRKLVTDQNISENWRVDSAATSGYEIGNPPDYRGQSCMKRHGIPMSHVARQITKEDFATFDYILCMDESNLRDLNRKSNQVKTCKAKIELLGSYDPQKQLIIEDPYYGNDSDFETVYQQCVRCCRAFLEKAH

Vero = Vero cell cytotoxicity, cytotoxicity control for flavivirus capping enzyme inhibitors (AID 588742); assay type: functional; settings: Chlorocebus sabaeus
[4] = target: T3, Replicative DNA helicase DnaB (Mycobacterium tuberculosis, UniProt P9WMR3); test: DnaB intein splicing inhibitors, dose response, biochemical, cell-free fluorescence (AID 449749); assay type: functional
T3 sequence (P9WMR3 whole entry): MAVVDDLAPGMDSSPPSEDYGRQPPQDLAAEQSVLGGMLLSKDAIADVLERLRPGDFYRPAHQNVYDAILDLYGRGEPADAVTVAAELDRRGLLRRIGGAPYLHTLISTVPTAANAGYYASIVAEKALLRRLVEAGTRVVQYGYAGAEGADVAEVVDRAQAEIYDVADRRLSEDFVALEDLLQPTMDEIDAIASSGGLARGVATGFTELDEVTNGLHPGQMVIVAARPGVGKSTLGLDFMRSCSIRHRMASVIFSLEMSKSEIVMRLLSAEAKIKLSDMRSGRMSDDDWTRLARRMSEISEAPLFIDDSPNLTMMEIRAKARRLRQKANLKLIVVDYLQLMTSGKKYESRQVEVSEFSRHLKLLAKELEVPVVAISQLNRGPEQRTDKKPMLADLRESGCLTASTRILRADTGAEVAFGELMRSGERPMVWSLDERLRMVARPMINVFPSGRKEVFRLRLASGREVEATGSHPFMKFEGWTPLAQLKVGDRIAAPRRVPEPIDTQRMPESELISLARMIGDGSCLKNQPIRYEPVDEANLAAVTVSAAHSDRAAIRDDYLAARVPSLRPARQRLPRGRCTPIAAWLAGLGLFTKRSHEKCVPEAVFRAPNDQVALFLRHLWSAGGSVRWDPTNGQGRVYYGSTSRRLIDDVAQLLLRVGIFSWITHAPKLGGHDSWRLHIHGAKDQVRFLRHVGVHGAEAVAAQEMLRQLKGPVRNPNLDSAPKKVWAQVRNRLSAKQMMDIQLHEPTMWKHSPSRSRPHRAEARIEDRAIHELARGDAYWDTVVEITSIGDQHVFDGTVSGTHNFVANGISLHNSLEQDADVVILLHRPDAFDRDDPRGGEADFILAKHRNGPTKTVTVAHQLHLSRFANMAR

Protein RecA = target: T4, Protein RecA (Mycobacterium tuberculosis, UniProt P9WHJ3); test: Fluorescence Cell-Free Homogeneous Dose Retest to Identify Inhibitors of RecA-Intein Splicing Activity. [Related pubchem assays (depositor defined):AID2097, AID2223, AID489010, AID492950]; assay type: functional
T4 sequence (P9WHJ3 whole entry): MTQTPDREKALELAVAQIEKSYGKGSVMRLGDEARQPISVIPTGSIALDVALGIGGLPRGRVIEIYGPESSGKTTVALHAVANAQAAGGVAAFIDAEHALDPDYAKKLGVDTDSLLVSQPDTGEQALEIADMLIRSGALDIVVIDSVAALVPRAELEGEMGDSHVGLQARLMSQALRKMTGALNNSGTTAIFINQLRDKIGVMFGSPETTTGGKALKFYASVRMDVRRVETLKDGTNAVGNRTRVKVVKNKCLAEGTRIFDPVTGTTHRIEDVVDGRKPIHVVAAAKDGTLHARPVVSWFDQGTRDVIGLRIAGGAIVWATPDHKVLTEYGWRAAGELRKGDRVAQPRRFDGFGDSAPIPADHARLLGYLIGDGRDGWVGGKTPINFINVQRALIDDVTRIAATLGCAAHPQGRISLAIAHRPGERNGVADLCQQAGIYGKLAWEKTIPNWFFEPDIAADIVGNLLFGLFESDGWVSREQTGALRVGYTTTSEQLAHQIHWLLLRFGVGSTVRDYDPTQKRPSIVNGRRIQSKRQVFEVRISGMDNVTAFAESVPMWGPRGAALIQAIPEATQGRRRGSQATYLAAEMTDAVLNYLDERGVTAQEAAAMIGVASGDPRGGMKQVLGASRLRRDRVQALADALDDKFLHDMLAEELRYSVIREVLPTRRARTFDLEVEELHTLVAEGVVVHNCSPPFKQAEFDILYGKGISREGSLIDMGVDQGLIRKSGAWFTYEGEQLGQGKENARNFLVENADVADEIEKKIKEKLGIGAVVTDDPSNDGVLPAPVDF

Genome polyprotein = Genome polyprotein (dengue virus type 2, UniProt P29990); test: Dengue-2 NS5 methyltransferase inhibitors, primary screen, biochemical, confirmation dose response (AID 588689); assay type: functional
[5] = inhibitors of intracellular T. cruzi replication, confirmation, NIH3T3 host cells, beta-gal luminescence (AID 2044); assay type: functional, cell-based;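 also: intracellular parasites grown in NIH/3T3 mouse fibroblasts as host cells; luminescent beta-galactosidase reporter signal from transgenic T. cruzi replicating inside host cells; inhibitors lower the luminescence signal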
[6] = cytotoxicity toward NIH3T3 fibroblasts, dose response, counter-screen, cell-based, ATP luminescence, mouse fibroblasts (AID 2010); assay type: functional;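 also: cells exposed to compound for about 90 hours before reading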
[7] = target: T5, Small ubiquitin-related modifier 1 (Homo sapiens, UniProt P63165); test: inhibitors of SUMO1 partner interactions, dose response, biochemical, FRET (AID 624383); assay type: functional; settings: read-out: IC50_Mean
[8] = target: T5, Small ubiquitin-related modifier 1; test: inhibitors of SUMO1 peptide binding, dose response, biochemical, fluorescence polarization, uHTS hits (AID 624382); assay type: functional; settings: read-out: IC50_Mean
[9] = HepG2 cell cytotoxicity, dose response, cytotoxicity control for non-replicating M. tuberculosis project (AID 489018); assay type: functional; settings: Mycobacterium tuberculosis
[10] = Vero E6 cell cytotoxicity, dose response, cytotoxicity control for non-replicating M. tuberculosis project, secondary assay (AID 492998); assay type: functional, VeroE6; settings: Vero C1008
[11] = THP-1 cell cytotoxicity, dose response, cytotoxicity control for non-replicating M. tuberculosis project (AID 489025); assay type: functional
[12] = HeLa cell cytotoxicity, dose response, cytotoxicity control for MgcRacGAP inhibitor project (AID 624300); assay type: functional
[13] = target: Ras and Rab interactor 1/Tyrosine-protein kinase ABL1 (Homo sapiens, UniProt P00519+Q13671); assay type: functional;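 also: biochemical TR-FRET dose-response test measuring inhibition of binding between Rin1 and Abl proteins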
[14] = Luminescence Cell-Based Dose Retest to Confirm Inhibitors of Cancer Stem Cells. [Related pubchem assays (depositor defined):AID2717, AID2721]; assay type: functional; settings: Homo sapiens
[15] = THP-1 cell cytotoxicity, dose response, cytotoxicity control for Vif-APOBEC3G degradation inhibitor project, THP-1 cells (AID 1117359); assay type: functional; settings: Human immunodeficiency virus 1, THP-1
[16] = target: T6, Probable nicotinate-nucleotide adenylyltransferase (Staphylococcus aureus (strain N315), UniProt P65502); assay type: functional, Staphylococcus aureus subsp. aureus N315; settings: read-out: IC50_Mean;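 as to IC50 Mean: confirmatory dose-response retesting of NadD inhibitor hits first found in an ultra-high-throughput screen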
[17] = target: T6, Probable nicotinate-nucleotide adenylyltransferase; assay type: functional, Staphylococcus aureus subsp. aureus N315
[18] = target: T7, RNA-binding protein pos-1 (Caenorhabditis elegans, UniProt G5EF15); test: inhibitors of POS-1/mex-3 RNA binding, dose response, biochemical, fluorescence polarization (AID 1964);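 also: purified POS-1 fused to maltose binding protein made in E. coli; potency of compounds blocking POS-1 binding to fluorescent RNA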
T7 sequence (G5EF15 whole entry): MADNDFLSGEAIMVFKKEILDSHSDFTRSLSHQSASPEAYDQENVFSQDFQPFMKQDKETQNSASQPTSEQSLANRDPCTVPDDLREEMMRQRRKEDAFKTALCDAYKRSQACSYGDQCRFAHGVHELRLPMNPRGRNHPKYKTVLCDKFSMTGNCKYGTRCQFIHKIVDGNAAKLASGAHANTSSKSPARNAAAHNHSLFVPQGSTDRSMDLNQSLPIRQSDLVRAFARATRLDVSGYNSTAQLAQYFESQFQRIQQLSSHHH

[19] = target: T8, Long-chain-fatty-acid--AMP ligase FadD28 (Mycobacterium tuberculosis, UniProt P9WQ59); test: Fluorescence polarization aasay to screen for inhibitors that compete for the binding of FadD28 to a bisubstrate Measured in Biochemical System Using Plate Reader - 2147-01_Inhibitor_Dose_CherryPick_Activity.; assay type: functional, Mycobacterium tuberculosis H37Rv
T8 sequence (P9WQ59 whole entry): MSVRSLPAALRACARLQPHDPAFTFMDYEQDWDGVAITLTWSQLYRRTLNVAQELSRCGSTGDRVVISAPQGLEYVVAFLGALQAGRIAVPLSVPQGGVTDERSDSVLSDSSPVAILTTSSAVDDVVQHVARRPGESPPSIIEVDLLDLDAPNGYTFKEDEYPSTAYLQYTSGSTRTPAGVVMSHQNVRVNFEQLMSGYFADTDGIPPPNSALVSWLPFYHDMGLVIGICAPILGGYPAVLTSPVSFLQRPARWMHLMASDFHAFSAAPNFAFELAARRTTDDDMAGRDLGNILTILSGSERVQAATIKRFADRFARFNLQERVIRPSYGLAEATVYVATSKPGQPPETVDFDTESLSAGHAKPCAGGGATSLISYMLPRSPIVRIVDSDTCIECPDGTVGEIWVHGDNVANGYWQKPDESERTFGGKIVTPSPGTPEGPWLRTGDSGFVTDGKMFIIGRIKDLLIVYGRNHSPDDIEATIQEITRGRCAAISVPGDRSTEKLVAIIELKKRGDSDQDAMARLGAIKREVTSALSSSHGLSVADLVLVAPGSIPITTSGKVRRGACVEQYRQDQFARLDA

[20] = target: T9, Zinc finger protein mex-5 (Caenorhabditis elegans, UniProt Q9XUB2); test: MEX-5/TCR-2 RNA interaction inhibitors, dose response, biochemical, C. elegans, fluorescence polarization (AID 1960)
T9 sequence (Q9XUB2 whole entry): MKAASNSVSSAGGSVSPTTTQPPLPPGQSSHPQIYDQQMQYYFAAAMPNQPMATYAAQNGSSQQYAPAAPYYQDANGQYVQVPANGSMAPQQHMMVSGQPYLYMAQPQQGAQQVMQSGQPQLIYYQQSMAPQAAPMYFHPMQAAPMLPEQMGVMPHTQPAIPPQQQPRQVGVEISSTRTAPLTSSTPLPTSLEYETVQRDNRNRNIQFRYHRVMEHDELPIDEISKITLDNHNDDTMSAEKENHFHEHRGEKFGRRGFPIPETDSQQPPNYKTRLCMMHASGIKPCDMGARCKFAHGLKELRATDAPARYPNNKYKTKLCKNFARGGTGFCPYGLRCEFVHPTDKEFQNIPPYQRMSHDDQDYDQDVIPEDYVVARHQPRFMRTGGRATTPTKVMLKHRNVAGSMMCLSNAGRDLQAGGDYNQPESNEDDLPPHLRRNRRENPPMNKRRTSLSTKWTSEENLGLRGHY

T6 sequence (P65502 whole entry): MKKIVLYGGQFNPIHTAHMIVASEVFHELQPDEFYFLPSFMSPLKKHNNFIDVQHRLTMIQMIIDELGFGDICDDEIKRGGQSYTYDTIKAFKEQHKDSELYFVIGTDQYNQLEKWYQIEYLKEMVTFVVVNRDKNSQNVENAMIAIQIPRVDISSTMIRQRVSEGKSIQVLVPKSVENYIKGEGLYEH
T5 sequence (P63165 whole entry): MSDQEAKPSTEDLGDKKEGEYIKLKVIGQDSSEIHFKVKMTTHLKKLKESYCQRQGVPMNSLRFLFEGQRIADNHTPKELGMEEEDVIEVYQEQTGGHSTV
Sequence of Ras and Rab interactor 1/Tyrosine-protein kinase ABL1 (P00519 whole entry): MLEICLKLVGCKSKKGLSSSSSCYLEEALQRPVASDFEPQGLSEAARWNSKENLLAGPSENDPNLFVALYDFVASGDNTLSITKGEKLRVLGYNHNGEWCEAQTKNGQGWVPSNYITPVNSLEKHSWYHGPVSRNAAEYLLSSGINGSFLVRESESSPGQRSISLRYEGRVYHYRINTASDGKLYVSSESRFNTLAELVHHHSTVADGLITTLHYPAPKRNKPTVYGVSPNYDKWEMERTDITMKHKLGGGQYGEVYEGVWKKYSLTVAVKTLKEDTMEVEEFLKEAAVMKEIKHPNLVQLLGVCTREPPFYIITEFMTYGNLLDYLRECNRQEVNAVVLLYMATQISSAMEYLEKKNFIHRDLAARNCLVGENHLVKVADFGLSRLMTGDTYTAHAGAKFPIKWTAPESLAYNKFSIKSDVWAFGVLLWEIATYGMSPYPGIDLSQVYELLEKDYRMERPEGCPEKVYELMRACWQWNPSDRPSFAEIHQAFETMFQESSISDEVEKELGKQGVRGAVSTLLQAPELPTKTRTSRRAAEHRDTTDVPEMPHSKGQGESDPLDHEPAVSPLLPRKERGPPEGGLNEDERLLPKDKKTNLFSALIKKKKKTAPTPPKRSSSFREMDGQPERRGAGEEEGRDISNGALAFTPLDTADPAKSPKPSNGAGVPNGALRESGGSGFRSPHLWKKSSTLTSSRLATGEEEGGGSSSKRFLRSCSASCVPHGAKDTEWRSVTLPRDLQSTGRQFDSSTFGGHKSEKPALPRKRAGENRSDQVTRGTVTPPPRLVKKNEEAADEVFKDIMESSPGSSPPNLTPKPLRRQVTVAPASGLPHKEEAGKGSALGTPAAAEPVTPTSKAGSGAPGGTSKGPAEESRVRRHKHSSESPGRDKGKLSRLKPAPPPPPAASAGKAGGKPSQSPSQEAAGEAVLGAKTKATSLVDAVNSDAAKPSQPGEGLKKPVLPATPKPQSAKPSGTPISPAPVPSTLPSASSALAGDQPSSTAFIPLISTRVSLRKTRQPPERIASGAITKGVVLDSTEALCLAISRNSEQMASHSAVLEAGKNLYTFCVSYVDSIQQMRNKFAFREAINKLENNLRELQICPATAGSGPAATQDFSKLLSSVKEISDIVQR
Sequence of Ras and Rab interactor 1/Tyrosine-protein kinase ABL1 (Q13671 whole entry): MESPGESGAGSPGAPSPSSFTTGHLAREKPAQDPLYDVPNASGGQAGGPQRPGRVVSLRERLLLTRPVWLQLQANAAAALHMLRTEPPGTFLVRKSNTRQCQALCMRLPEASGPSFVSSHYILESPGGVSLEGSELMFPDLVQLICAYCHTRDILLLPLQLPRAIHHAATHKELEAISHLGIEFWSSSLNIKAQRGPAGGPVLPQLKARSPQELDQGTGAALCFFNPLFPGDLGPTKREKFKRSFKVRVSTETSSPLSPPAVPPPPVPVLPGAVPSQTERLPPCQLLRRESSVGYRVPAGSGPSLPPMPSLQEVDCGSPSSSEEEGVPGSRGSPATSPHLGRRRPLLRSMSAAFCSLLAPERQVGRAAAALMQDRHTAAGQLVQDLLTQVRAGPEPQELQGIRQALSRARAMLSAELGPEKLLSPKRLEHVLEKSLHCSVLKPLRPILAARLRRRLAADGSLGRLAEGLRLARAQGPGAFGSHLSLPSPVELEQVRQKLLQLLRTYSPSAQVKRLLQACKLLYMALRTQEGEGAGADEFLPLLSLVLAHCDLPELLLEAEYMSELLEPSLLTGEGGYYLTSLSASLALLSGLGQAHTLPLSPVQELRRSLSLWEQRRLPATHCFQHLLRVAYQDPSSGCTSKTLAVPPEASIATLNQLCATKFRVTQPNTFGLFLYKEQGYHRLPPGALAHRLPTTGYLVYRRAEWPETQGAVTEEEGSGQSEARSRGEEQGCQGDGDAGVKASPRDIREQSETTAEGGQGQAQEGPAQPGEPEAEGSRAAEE
Sequence of Photoreceptor-specific nuclear receptor (Q9Y5X4 whole entry, the tested form may be a part): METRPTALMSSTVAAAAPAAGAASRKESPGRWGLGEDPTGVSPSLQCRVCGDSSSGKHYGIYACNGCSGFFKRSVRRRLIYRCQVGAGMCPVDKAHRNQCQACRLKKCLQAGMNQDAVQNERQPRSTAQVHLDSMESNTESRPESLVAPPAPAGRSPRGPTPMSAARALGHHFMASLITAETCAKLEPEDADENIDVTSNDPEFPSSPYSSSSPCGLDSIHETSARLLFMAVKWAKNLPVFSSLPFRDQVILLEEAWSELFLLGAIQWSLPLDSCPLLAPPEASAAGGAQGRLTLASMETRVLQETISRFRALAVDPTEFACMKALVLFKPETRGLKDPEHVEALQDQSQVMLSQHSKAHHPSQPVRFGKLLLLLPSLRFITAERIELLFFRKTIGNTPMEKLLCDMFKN
Sequence of Genome polyprotein (P29990 2492-3391 limits assumed): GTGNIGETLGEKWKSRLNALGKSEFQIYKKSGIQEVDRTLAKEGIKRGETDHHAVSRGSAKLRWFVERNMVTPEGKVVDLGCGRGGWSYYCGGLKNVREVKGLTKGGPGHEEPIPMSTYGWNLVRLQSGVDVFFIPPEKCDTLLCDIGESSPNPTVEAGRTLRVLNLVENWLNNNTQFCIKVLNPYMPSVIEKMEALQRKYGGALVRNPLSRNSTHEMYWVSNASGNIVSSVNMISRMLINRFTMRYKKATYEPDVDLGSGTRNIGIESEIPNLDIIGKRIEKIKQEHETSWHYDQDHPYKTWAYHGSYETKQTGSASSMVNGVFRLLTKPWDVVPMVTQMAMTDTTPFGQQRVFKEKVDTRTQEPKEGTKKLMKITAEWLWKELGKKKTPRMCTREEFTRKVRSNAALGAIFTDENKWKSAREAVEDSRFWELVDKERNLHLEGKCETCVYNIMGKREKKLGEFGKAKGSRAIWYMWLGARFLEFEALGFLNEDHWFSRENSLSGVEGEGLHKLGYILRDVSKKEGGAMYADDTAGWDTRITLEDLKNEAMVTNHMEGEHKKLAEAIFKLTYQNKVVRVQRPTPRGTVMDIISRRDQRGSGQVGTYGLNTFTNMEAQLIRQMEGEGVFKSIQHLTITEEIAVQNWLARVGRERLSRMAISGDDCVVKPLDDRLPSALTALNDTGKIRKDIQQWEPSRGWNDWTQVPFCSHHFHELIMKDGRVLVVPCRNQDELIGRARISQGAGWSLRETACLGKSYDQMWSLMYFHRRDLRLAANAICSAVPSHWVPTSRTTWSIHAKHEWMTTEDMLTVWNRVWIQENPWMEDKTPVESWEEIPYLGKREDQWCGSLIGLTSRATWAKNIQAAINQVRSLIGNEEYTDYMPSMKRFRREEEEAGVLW

c1coc(CNc2ncnc3ccccc23)c1
IC50 [1]: 4.34 µM (active)

CCCc1cc(=O)oc2c3c(cc(OCC(=O)NCCCn4ccnc4)c12)OC(C)(C)CC3
AC50 [2]: 5.93 µM (active)

Clc1ccc(Br)cc1-c1nc(-c2ccncc2)no1
IC50 [3]: 12.2 µM (active)

CCOC(=O)c1c(NC(=O)/C=C/C(=O)O)sc(C)c1-c1ccc(C)c(C)c1
CC50 (Vero): > 40 µM (active)
AC50 [4]: 8.39 µM (active)
EC50 (Protein RecA): 1.89 µM (active)
IC50 (Genome polyprotein): 75.1 µM (active)

O=C(Nc1cccc(NC(=O)c2ccc(-c3ccc(Br)cc3)o2)c1)c1ccco1
EC50 [5]: 2.73 µM (active)
EC50 [6]: > 30 µM (not active)
IC50 [7]: 6.92 µM (active)
IC50 [8]: > 66.6 µM (inactive)

COc1cc(CNCCNC(=O)c2nonc2N)ccc1OCc1ccc(Cl)cc1
CC50 [9]: > 20 µM (active)
CC50 [10]: > 20 µM (active)
CC50 [11]: 24.3 µM (active)
CC50 [12]: 75.4 µM (active)

O=C(Nc1ccn([C@H]2CC[C@@H](CO)O2)c(=O)n1)c1ccccc1
IC50 [13]: 66.6 µM (inactive)

O=C(c1cccc(F)c1)N1CC[C@@H]2[C@H](CO)Nc3ccc(-c4cccc(F)c4)cc3[C@@H]21
AC50 [2]: 0.185 µM (active)

Cc1ccc([N+](=O)[O-])cc1-c1ccc(/C=C(\C#N)c2[nH]nc(N)c2C#N)o1
AC50 [14]: 2.98 µM (active)
IC50 [7]: 1.74 µM (active)
IC50 [8]: > 66.6 µM (inactive)

O=C(NC(=S)Nc1cccc(S(=O)(=O)NC2=NCCC2)c1)c1cc(-c2ccco2)nc2ccccc12
CC50 [15]: > 40 µM (active)
IC50 [16]: 35 µM (active)
IC50 [17]: 10.4 µM (active)

Cc1cnc(NC(=O)C2CC(=O)N(c3ccc4c(c3)OCCO4)C2)s1 (stereo unspecified)
IC50 [1]: 7.49 µM (active)

Cc1cccc(NC(=O)CN2C(=O)N/C(=C\c3cccn3-c3cccc(C(=O)O)c3)C2=O)c1
EC50 [18]: > 300 µM (not active)
AC50 [19]: > 100 µM (inactive)
EC50 [20]: > 300 µM (not active)

C[C@@H]1CN([C@H](C)CO)C(=O)Cc2cc(NC(=O)Cn3cnnn3)ccc2O[C@H]1CN(C)Cc1ccc2c(c1)OCO2
AC50 [2]: 7.3 µM (active)

CCOC(=O)c1ccc(NC(=O)NC2CC3CCC(C2)N3)cc1 (stereo unspecified)
IC50 [13]: 31.7 µM (inactive)

O=C(Nc1ccc(S(=O)(=O)Nc2nccs2)cc1)c1cc(-c2ccccc2Cl)nc2ccccc12
IC50 [16]: 22.2 µM (active)
IC50 [17]: 6.99 µM (active)
